According to ChEMBL document CHEMBL1151646, “Methyl -Orcinolcarboxylate and Depsides from Parmelia furfuracea” (1985):
Structures can show the parent of a compound that is named as a salt.

Columns and labels:
Format in all cases: functional
Settings in all cases: read-out: IZ
Penicillium digitatum [1] = assay: Antimicrobial activity against Penicillium digitatum at 24 ug
Saccharomyces cerevisiae [2] = assay: Antimicrobial activity against Saccharomyces cerevisiae at 24 ug
Saccharomyces cerevisiae [3] = assay: Antimicrobial activity against Saccharomyces cerevisiae at 400 ug
Bacillus subtilis [4] = assay: Antimicrobial activity against Bacillus subtilis ATCC 6633 at 400 ug
Penicillium digitatum [5] = assay: Antimicrobial activity against Penicillium digitatum at 40 ug
Escherichia coli [6] = assay: Antimicrobial activity against Escherichia coli B ATCC 11303 at 400 ug
Escherichia coli [7] = assay: Antimicrobial activity against Escherichia coli B ATCC 11303 at 6 ug
Bacillus subtilis [8] = assay: Antimicrobial activity against Bacillus subtilis ATCC 6633 at 0.6 ug

Q: What does the source list for `CCCCC[C@@H](O)[C@H]1C(=O)O[C@H](C)[C@@H](O)/C=C/C=C/C=C/C=C/C=C(\C)[C@@H](O)C[C@H](O)C[C@H](O)C[C@H](O)C[C@H](O)C[C@H](O)C[C@@H]1O` [FILIPIN]?
A: zone of inhibition at 24 µg/disc (Penicillium digitatum [1]): 29 mm; zone of inhibition at 24 µg/disc (Saccharomyces cerevisiae [2]): 21 mm

Q: For `COC(=O)c1c(C)cc(O)c(C)c1O` [ATRARIC ACID], which zone of inhibition at 400 µg/disc (Saccharomyces cerevisiae [3]) is on record?
A: 18 mm

Q: And the zone of inhibition at 400 µg/disc (Bacillus subtilis [4])?
A: 17 mm

Q: What about the zone of inhibition at 40 µg/disc (Penicillium digitatum [5]) of the same molecule?
A: 29 mm

Q: And the zone of inhibition at 400 µg/disc (Escherichia coli [6])?
A: 15 mm

Q: With `CN[C@@H]1[C@H](O[C@H]2[C@H](O[C@H]3[C@H](O)[C@@H](O)[C@H](N=C(N)N)[C@@H](O)[C@@H]3N=C(N)N)O[C@@H](C)[C@]2(O)C=O)O[C@@H](CO)[C@H](O)[C@H]1O` [STREPTOMYCIN SULFATE] as the molecule, how does the zone of inhibition at 6 µg/disc (Escherichia coli [7]) read?
A: 17 mm

Q: And the zone of inhibition at 0.6 µg/disc (Bacillus subtilis [8])?
A: 16 mm
